Test results taken from patent publication US8962001B2, “Nuclease inhibitors and methods for their use” (Wisconsin Alumni Research Foundation, priority 2004, dated 2015).

Columns and labels:
[1] = molecular target: T1, ribonuclease A (Bos taurus, UniProt P61823); assay: Inhibition of RNase A catalysis, fluorescence assay with 6-FAM~dArUdAdA~6-TAMRA; assay type: biochemical; details: solutions of low salt concentration
T1 construct: made in house
T1 sequence (P61823 27-150): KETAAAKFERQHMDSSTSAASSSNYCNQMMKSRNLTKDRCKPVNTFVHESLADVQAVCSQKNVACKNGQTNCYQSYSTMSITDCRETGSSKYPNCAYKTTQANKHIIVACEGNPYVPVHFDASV
Procedure: Inhibition of RNase A Catalysis—Inhibition of ribonucleolytic activity was measured by using either poly(C) or a fluorogenic substrate. The total cytidyl concentration of poly(C) was quantitated using ε=6,200 M^−1 cm^−1 at 268 nm (Yakovlev et al., 1992). The cleavage of poly(C) was monitored by the decrease in ultraviolet hypochromicity. The Δε value for this reaction calculated from the difference in molar absorptivity of the polymeric substrate and the mononucleotide cyclic phosphate product was 2,380 M^−1 cm^−1 at 250 nm (delCardayre and Raines, 1994). Assays were performed at 25° C. in 50 mM imidazole-HCl buffer, pH 6.0, containing NaCl (0.10 M), poly(C) (10 μM-1.5 mM), OVS (0-1.43 μM), and enzyme (1.0 nM).
Molar values of OVS were calculated by using the number average molecular mass (Mn) of 2,000 g/mol (value provided by the manufacturer and said to be measured by GPC, Polysciences.) It is possible that an oligomer of this size could bind two enzymes. Thus, the actual Ki values could be 2-fold higher. Kinetic parameters were determined from initial velocity data with the program DELTA-GRAPH 4.0 (DeltaPoint, Monterey, Calif.). For the fluorescence assay, the inhibition of ribonucleolytic activity was assessed at 25° C. in 2.0 ml of 50 mM imidazole-HCl buffer, pH 6.0, containing NaCl (0-0.25 M), 6-FAM˜dArUdAdA˜6-TAMRA (60 nM), and RNase A ([…]) as described previously (Kelemen et al., 1999; Park et al., 2001). Fluorescence (F) was measured using 493 and 515 nm as the excitation and emission wavelengths, respectively. The value of ΔF/Δt was measured for 3 min after the addition of RNase A. An aliquot of inhibitor (I) dissolved in the dissolved in the assay buffer was added next, and ΔF/Δt was measured in the presence of the inhibitor for 3 min. The concentration of inhibitor in the assay was doubled repeatedly in 3-min intervals. Excess RNase A was then added to the mixture to ensure that […] substrate had been cleaved prior to completion of the inhibition assay. Apparent changes in ribonucleolytic activity due to dilution were corrected by comparing values to an assay in which aliquots of buffer were added to the assay. Values of Ki were determined by non-linear least squares regression analysis of data fitted to Equation 1 (Kelemen et al., 1999; Park et al., 2001). ΔF/Δt=(ΔF/Δt)0(Ki/(Ki+[I])) (Eq. 1)
At 0 M NaCl, the enzyme concentration ([E] total) caused a significant depletion in inhibitor concentration, thus the data were fitted to Equation 2, which describes tight-binding inhibition (Henderson, 1972). ΔF/Δt=((ΔF/Δt)0/2[E]total){[(Ki+[I]−[E]total]^2+4Ki[E]total)^1/2−(Ki+[I]−[E]total)} (Eq. 2) In Equations 1 and 2, ( )F/ )t)0 was the ribonucleolytic activity prior to inhibitor addition.

[2] = molecular target: T2, RNase A (Bos taurus, UniProt P61823); details: similar buffer conditions with 0.10 M NaCl; cited from earlier work
T2 sequence (P61823 27-150): T1 sequence (P61823 27-150)

Compound	inhibition of RNase A by buffer synthesis byproducts (words) [1]	inhibition of RNase A by buffer synthesis byproducts (words) ([1]; listed as 2-OH ethanesulfonic acid)	inhibition of RNase A by buffer synthesis byproducts (words) ([1]; listed as diethanesulfonic acid)	Ki [2]	inhibition of RNase A by buffer synthesis byproducts (words) ([1]; listed as vinyl sulfonic acid)
O=S(=O)(O)CCO [2-hydroxyethanesulfonic acid]	Neither of these species was found to be a potent inhibitor	None of these three materials was found, when tested, to exhibit inhibitory activity	–	–	–
O=S(=O)(O)CCOCCS(=O)(=O)O [Diethanesulfonic acid ether, diethanesulfonic acid ether]	failed to inhibit RNase A	–	None of these three materials was found, when tested, to exhibit inhibitory activity	–	–
Nc1ncnc2c1ncn2[C@@H]1O[C@H](COP(=O)(O)OP(=O)(O)O[C@H]2C[C@H](n3ccc(=O)[nH]c3=O)O[C@@H]2COP(=O)(O)O)[C@@H](OP(=O)(O)O)[C@H]1O [pdUppA-3′-p]	–	–	–	~120 nM	–
C=CS(=O)(=O)O [vinylsulfonic acid]	Neither of these species was found to be a potent inhibitor	–	–	–	None of these three materials was found, when tested, to exhibit inhibitory activity
